Patent US20100298141A1, “SUBSTITUTED PYRIDINE N-OXIDE HERBICIDES” (E. I. DU PONT DE NEMOURS AND COMPANY, priority 2007, published 2010)

Assays:
pitted morningglory = test: Test F preemergence test; format: in vivo, Ipomoea lacunosa; conditions: scale 0 to 100
In short: (§1)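 Visual ratings relative to controls, taken after 14 to 21 days in a greenhouse. Test chemicals, formulated in a surfactant-containing non-phytotoxic solvent mixture, were applied preemergence to sown seeds or postemergence to sugarcane plants.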

crabgrass = test: Test A pre-/postemergence greenhouse test; format: in vivo, Digitaria sanguinalis; conditions: for Crabgrass, Large plant response rating: 0 to 100 scale
In short: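 Herbicidal effect is a visual injury score given about ten days post-treatment by comparison with untreated controls. Preemergence plots received a directed spray onto sown loam–sand soil; postemergence plants, at the one- to two-leaf stage and 2–10 cm tall, were sprayed at the same time.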

purple nutsedge = test: Test F preemergence test; format: in vivo, Cyperus rotundus; conditions: scale 0 to 100
In short: as §1

common ragweed [1] = test: Test C pre-/postemergence test; format: in vivo, Ambrosia elation; conditions: for Plant response rating, Ragweed: scale 0 to 100, 0 no effect, 100 complete control
In short: (§2)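 Seeds were planted and treated preemergence with test chemical in a non-phytotoxic solvent mixture containing surfactant. Postemergence applications of the same formulation went onto plants 2 to 18 cm tall (1- to 4-leaf stage). A dash marks no test result.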

goosegrass = test: Test F preemergence test; format: in vivo, Eleusine indica; conditions: scale 0 to 100
In short: as §1

naked crabgrass = test: Test F preemergence test; format: in vivo, Digitaria nuda; conditions: scale 0 to 100
In short: as §1

prickly sida = test: Test F preemergence test; format: in vivo, Sida spinosa; conditions: scale 0 to 100
In short: as §1

yellow nutsedge = test: Test C pre-/postemergence test; format: in vivo, Cyperus esculentus; conditions: for Plant response rating, Nutsedge, Yellow: scale 0 to 100, 0 no effect, 100 complete control
In short: as §2

kochia = test: Test C pre-/postemergence test; format: in vivo, Kochia scoparia; conditions: for Plant response rating, Kochia: scale 0 to 100, 0 no effect, 100 complete control
In short: as §2

bermudagrass = test: Test F preemergence test; format: in vivo, Cynodon dactylon; conditions: scale 0 to 100
In short: as §1

itchgrass = test: Test F preemergence test; format: in vivo, Rottboellia cochinchinensis; conditions: scale 0 to 100
In short: as §1

broadleaf signalgrass = test: Test F preemergence test; format: in vivo, Brachiaria platyphylla; conditions: scale 0 to 100
In short: as §1

green foxtail = test: Test F preemergence test; format: in vivo, Setaria viridis; conditions: scale 0 to 100
In short: as §1

common ragweed [2] = test: Test F preemergence test; format: in vivo, Ambrosia elation; conditions: scale 0 to 100
In short: as §1

[3] = 31 g ai/ha, Preemergence, scale 0 to 100
[4] = 62 g ai/ha, preemergence, scale 0 (no effect) to 100 (complete control)
[5] = preemergence, 125 g ai/ha, scale 0 (no effect) to 100 (complete control)

Question: Which results are given for `Cn1nc(C(F)(F)F)c(C[S+]([O-])c2cccc[n+]2[O-])c1OC(F)F` (stereo not shown) [Compound 3]?
Answer: Plant response rating, Morningglory (pitted morningglory; 8 g ai/ha, preemergence): 0; Morningglory plant response rating (pitted morningglory; 62 g ai/ha, Preemergence): 35; Plant response rating, Morningglory (pitted morningglory; Preemergence, 16 g ai/ha): 0; Crabgrass, Large plant response rating (crabgrass; Postemergence, 125 g ai/ha, 0 is no effect, 100 is complete control): 80; Crabgrass, Large plant response rating (crabgrass; Postemergence, 500 g ai/ha, 0 is no effect, 100 is complete control): 90; Crabgrass, Large plant response rating (crabgrass; Preemergence, 125 g ai/ha, 0 no effect, 100 complete control): 90; Plant response rating, Crabgrass, Large (crabgrass; Preemergence, 500 g ai/ha, 0 to 100 scale where 0 is no effect and 100 is complete control): 100; Plant response rating, Purple Nutsedge (purple nutsedge; 8 g ai/ha, preemergence): 0; Purple Nutsedge plant response rating (purple nutsedge; 62 g ai/ha, Preemergence): 80; Plant response rating, Purple Nutsedge (purple nutsedge; Preemergence, 16 g ai/ha): 60; Plant response rating, Purple Nutsedge (purple nutsedge; Preemergence, 31 g ai/ha): 75; Ragweed plant response rating (common ragweed [1]; [3]): 100; Ragweed plant response rating (common ragweed [1]; [4]): 100; Plant response rating (0 to 100), Ragweed (common ragweed [1]; Postemergence, 31 g ai/ha): 5; Plant response rating (0 to 100), Ragweed (common ragweed [1]; Postemergence, 62 g ai/ha): 5; Plant response rating, Ragweed (common ragweed [1]; Postemergence, 125 g ai/ha): 50; Plant response rating, Ragweed (common ragweed [1]; Postemergence, 250 g ai/ha): 50; Plant response rating (0 to 100), Ragweed (common ragweed [1]; Preemergence, 250 g ai/ha): 100; Ragweed plant response rating (common ragweed [1]; [5]): 100; Plant response rating, Goosegrass (goosegrass; 8 g ai/ha, preemergence): 0; Goosegrass plant response rating (goosegrass; 62 g ai/ha, Preemergence): 98; Plant response rating, Goosegrass (goosegrass; Preemergence, 16 g ai/ha): 40; Plant response rating, Goosegrass (goosegrass; Preemergence, 31 g ai/ha): 95; Plant response rating, Crabgrass, Naked (naked crabgrass; 8 g ai/ha, preemergence): 20; Crabgrass, Naked plant response rating (naked crabgrass; 62 g ai/ha, Preemergence): 100; Plant response rating, Crabgrass, Naked (naked crabgrass; Preemergence, 16 g ai/ha): 80; Plant response rating, Crabgrass, Naked (naked crabgrass; Preemergence, 31 g ai/ha): 90; Plant response rating, Prickly Sida (prickly sida; 8 g ai/ha, preemergence): 0; Prickly Sida plant response rating (prickly sida; 62 g ai/ha, Preemergence): 100; Plant response rating, Prickly Sida (prickly sida; Preemergence, 16 g ai/ha): 0; Plant response rating, Prickly Sida (prickly sida; Preemergence, 31 g ai/ha): 80; Nutsedge, Yellow plant response rating (yellow nutsedge; [3]): 0; Nutsedge, Yellow plant response rating (yellow nutsedge; [4]): 100; Plant response rating (0 to 100), Nutsedge, Yellow (yellow nutsedge; Postemergence, 31 g ai/ha): 0; Plant response rating, Nutsedge, Yellow (yellow nutsedge; Postemergence, 62 g ai/ha): 0; Plant response rating, Nutsedge, Yellow (yellow nutsedge; Postemergence, 125 g ai/ha): 0; Plant response rating, Nutsedge, Yellow (yellow nutsedge; Postemergence, 250 g ai/ha): 0; Plant response rating (0 to 100), Nutsedge, Yellow (yellow nutsedge; Preemergence, 250 g ai/ha): 100; Nutsedge, Yellow plant response rating (yellow nutsedge; [5]): 100; Kochia plant response rating (kochia; [3]): 80; Kochia plant response rating (kochia; [4]): 100; Plant response rating (0 to 100), Kochia (kochia; Postemergence, 31 g ai/ha): 5; Plant response rating, Kochia (kochia; Postemergence, 62 g ai/ha): 5; Plant response rating, Kochia (kochia; Postemergence, 125 g ai/ha): 10; Plant response rating, Kochia (kochia; Postemergence, 250 g ai/ha): 10; Plant response rating (0 to 100), Kochia (kochia; Preemergence, 250 g ai/ha): 100; Kochia plant response rating (kochia; [5]): 100; Plant response rating, Bermudagrass (bermudagrass; 8 g ai/ha, preemergence): 0; Bermudagrass plant response rating (bermudagrass; 62 g ai/ha, Preemergence): 85; Plant response rating, Bermudagrass (bermudagrass; Preemergence, 16 g ai/ha): 0; Plant response rating, Bermudagrass (bermudagrass; Preemergence, 31 g ai/ha): 65; Plant response rating, Itchgrass (itchgrass; 8 g ai/ha, preemergence): 0; Itchgrass plant response rating (itchgrass; 62 g ai/ha, Preemergence): 90; Plant response rating, Itchgrass (itchgrass; Preemergence, 16 g ai/ha): 35; Plant response rating, Itchgrass (itchgrass; Preemergence, 31 g ai/ha): 70; Plant response rating, Signalgrass (broadleaf signalgrass; 8 g ai/ha, preemergence): 0; Plant response rating, Signalgrass (broadleaf signalgrass; 16 g ai/ha, preemergence): 0; Signalgrass plant response rating (broadleaf signalgrass; 62 g ai/ha, Preemergence): 75; Plant response rating, Signalgrass (broadleaf signalgrass; Preemergence, 31 g ai/ha): 75; Plant response rating, Foxtail, Green (green foxtail; 8 g ai/ha, preemergence): 0; Foxtail, Green plant response rating (green foxtail; 62 g ai/ha, Preemergence): 95; Plant response rating, Foxtail, Green (green foxtail; Preemergence, 16 g ai/ha): 40; Plant response rating, Foxtail, Green (green foxtail; Preemergence, 31 g ai/ha): 75; Plant response rating, Ragweed (common ragweed [2]; 8 g ai/ha, preemergence): 0; Ragweed plant response rating (common ragweed [2]; 62 g ai/ha, Preemergence): 90; Plant response rating, Ragweed (common ragweed [2]; Preemergence, 16 g ai/ha): 60; Plant response rating, Ragweed (common ragweed [2]; Preemergence, 31 g ai/ha): 80
